Where a name gives a salt, the structure may show the parent alone.

The values that follow come from patent US9562024B2, “Vortioxetine salt and crystal thereof, their preparation method, pharmaceutical compositions and usage” (HANGZHOU PUSHAI PHARMACEUTICAL TECHNOLOGY CO., LTD, priority 2013, dated 2017).

Type in all cases: physicochemical
Data set [1] is described as follows: Hygroscopicity comparison (DVS isothermal sorption). The conditions noted are these: relative humidity range 20%-80%. The protocol:
Dynamic vapor sorption (DVS) data were collected using TA Instruments Q5000 TGA. The instrument control software was Thermal Advantage, and the analytical software was Universal Analysis. Usually, 1-10 mg of the sample was placed in a platinum pan and the weight change of the sample during experiments was recorded. The relative humidity was usually programmed to change from 20% to 80% and then back to 20%, and an isothermal sorption curve could be generated. Depending on specific situations, different sorption and desorption procedures might be used.
Hygroscopicity comparison: DVS isothermal sorption curves were used, and weight changes within the 20%-80% RH range were measured.

A short description of data set [2]: Dissolution comparison of sustained-release tablets, Example 144. The conditions noted are these: water, 37° C. As to the method: The crystalline form of vortioxetine hemihydrobromide of the present invention and the β Form of vortioxetine hydrobromide prepared in preparation example 2 were tableted by the method of example 141 and then subjected to dissolution comparison. Water was used as the dissolution medium. Parameter setting of the dissolution tester: The temperature was 37° C. The rotate speed of the stirring paddle was 50 r/min. Take 3 ml of the dissolution medium out at 0.5, 1, 2, 6 and 12 hours respectively. Each time after sampling, 3 mL of water was added back to the dissolution medium to supplement the volume. The concentration of the dissolution medium at each time point was determined by HPLC.

Data set [3] is described as follows: Stability competition test (competitive slurry, XRPD). The conditions noted are these: for Stability Competition Test: crystalline form after competitive slurry (XRPD): equal quantities of both forms slurried 7 days in ethanol or water; for Stability competition test: crystalline form after slurry: slurried in water or ethanol. The protocol: Stability competition test: An equal quantity (250 mg) of the crystalline vortioxetine hemihydrobromide form of the present invention prepared in example 4 and the β Form of vortioxetine hydrobromide prepared in preparation example 2 were respectively added to 3 mL of ethanol or water to produce suspensions. No solvate was formed in ethanol or water. The suspensions were slurried for 7 days at room temperature or at 60° C., and then XRPD characterization analyses were performed.

A short description of data set [4]: Inventors' studies of the known crystalline forms of vortioxetine hydrobromide of WO2007/144005A1. The source says:
In studies, the inventors of the present invention found out that the multiple crystalline forms of vortioxetine hydrobromide disclosed in WO2007/144005A1 have the following disadvantages: […]

The nature of data set [5]: Dissolution of tablets (paddle method, water), Example 140. The conditions noted are these: 37° C. As to the method:
The crystalline form of vortioxetine hemihydrobromide of the present invention, the β Form of vortioxetine hydrobromide prepared in preparation example 2 and the β Form of vortioxetine hydrobromide containing 20% of the crystalline form of vortioxetine hemihydrobromide of the present invention were tableted by the method in example 105 and then subjected to phase stability comparison. Dissolution was determined by reference to the dissolution conditions of Benorilate Tablets described in 2010 Chinese Pharmacopoeia. The paddle method was used with the paddle rotation speed at 50 r/min. 900 mL of water was the dissolution medium. The temperature was 37° C. Take 3 mL of the dissolution medium for sampling at 2, 10, 20, 40 and 60 min respectively. Each time after sampling, 3 mL of water was added back to dissolution medium to supplement the volume. The concentration of the dissolution medium at each time point was measured by HPLC, and the dissolution profile was plotted.

Where [6] appears, read: high-temperature conditions, hydrobromide.

For `Cc1ccc(Sc2ccccc2N2CCNCC2)c(C)c1` [the β Form of vortioxetine hydrobromide, 1-[2-(2,4-dimethylphenylsulfanyl)phenyl]piperazine hydrobromide], the “Hygroscopicity Comparison (weight change)” value in data set [1] (listed as the known β Form of vortioxetine hydrobromide, hydrobromide) turned out to be 0.60%. Besides, the Cumulative dissolution is recorded as 50.0% in data set [2] (sustained-release tablets by method of example 141, paddle 50 r/min, 0.5 hours, hydrobromide) and 100.0% in data set [2] (sustained-release tablets, 12 hours, hydrobromide). In addition, the “Stability Competition Test: crystalline form after competitive slurry (XRPD)” value in data set [3] (60° C., listed as the known β Form of vortioxetine hydrobromide, hydrobromide) is reported as “completely transformed into the vortioxetine hemihydrobromide crystalline form of the present invention”; in data set [3] (room temperature, listed as the known β Form of vortioxetine hydrobromide, hydrobromide) it was “completely transformed into the vortioxetine hemihydrobromide crystalline form of the present invention”. Besides, the “Stability competition test: crystalline form after slurry” value in data set [3] (temperature not stated at the place, hydrobromide) is on record as “transformed to the vortioxetine hemihydrobromide crystalline form of the present invention”; in data set [3] (temperature not stated at the place, listed as β Form of vortioxetine hydrobromide, hydrobromide) it was “failed to maintain its original crystalline form”; in data set [3] (temperature not stated, listed as the known β Form of vortioxetine hydrobromide, hydrobromide), “completely transformed to the crystalline vortioxetine hemihydrobromide of the present invention”.
Consider `Cc1ccc(Sc2ccccc2N2CCNCC2)c(C)c1` [ethyl acetate solvate of vortioxetine hydrobromide], for which the “Stability of the crystalline form” value in data set [4] (high-humidity conditions) is “transformed to hydrate”; in data set [4] (setting [6]) it was “lost ethyl acetate”.
Consider `Cc1ccc(Sc2ccccc2N2CCNCC2)c(C)c1` [α Form of vortioxetine hydrobromide, vortioxetine hydrobromide], for which the “Stability of the crystalline form” value in data set [4] (room temperature) is “transformed to the β Form of vortioxetine hydrobromide”.
Turning to `Cc1ccc(Sc2ccccc2N2CCNCC2)c(C)c1` [vortioxetine hemihydrobromide], the Cumulative dissolution in data set [5] (tablets by method of example 105, 900 mL water, paddle 50 r/min, 2 min, hemihydrobromide) amounted to 8.2%; in data set [5] (tablets, water, 60 min), 100.0%; in data set [2] (sustained-release tablets by method of example 141, paddle 50 r/min, 0.5 hours, hemihydrobromide), 8.1%. Moreover, the “Hygroscopicity Comparison (weight change)” value in data set [1] (listed as Example 4, hemihydrobromide) is reported as 0.28%; in data set [1] (listed as the vortioxetine hemihydrobromide crystalline form of the present invention, hemihydrobromide) it was 0.28%. For the same compound, the “Stability Competition Test: crystalline form after competitive slurry (XRPD)” value in data set [3] (60° C., listed as the vortioxetine hemihydrobromide crystalline form of the present invention, hemihydrobromide) was “kept unchanged”; in data set [3] (room temperature, listed as the vortioxetine hemihydrobromide crystalline form of the present invention, hemihydrobromide), “invention kept unchanged””. The “Stability competition test: crystalline form after slurry” value in data set [3] (temperature not stated, hemihydrobromide) is on record as “keeping its crystalline form unchanged”.
With `Cc1ccc(Sc2ccccc2N2CCNCC2)c(C)c1` [hydrate of vortioxetine hydrobromide, vortioxetine hydrobromide], the “Stability of the crystalline form” value in data set [4] (setting [6]) is “lost water”.
